Data set [1] is described as follows: Pharmacokinetic study on ICR mice (plasma, LC-MS/MS). The format is in vivo. As to conditions: male, mouse; for bioavailability: 5 mg/kg oral intake vs 1 mg/kg injection, read-out: Bioavailability F(%); for AUC(0-inf): read-out: Area under curve AUC0-∞; for Cmax: read-out: Blood concentration Cmax; for half-life: read-out: Half-life T1/2(h) (converted); for clearance: read-out: Clearance rate. As to the method: ICR mice, male, 29.0 g to 33.8g, purchased from Beijing Charles River Laboratory Animal Technology Co., Ltd.
Intravenous injection group: an appropriate amount of drug was weighed, and added with mixed solvent (DMA: 30% Solutol HS-15: Saline = 10: 10: 80 (v/v/v)) to prepare the drug with a final concentration of 0.2 mg/mL.
Oral gavage administration group: an appropriate amount of drug was weighed, added with an appropriate amount of sodium carboxymethyl cellulose (CMC-Na, containing 0.5% Tween 80), vortex shaked, and ultrasonically prepared into […] suspension.
For ICR mice, each compound to be tested was divided into an intravenous injection group (9 mice in each group) and an intragastric group (9 mice in each group). The ICR mice were fasted overnight and then administered by orbital intravenous injection (administration dose of 1 mg/kg, and administration volume of 5 mL/kg) and administered by intragastric injection (administration dose of 5 mg/kg, and administration volume of 10 mL/kg), and ate 4 hours after administration.
About 0.2 mL of blood was collected via jugular vein before administration and 0.083 hour, 0.25 hour, 0.5 hour, 1 hour, 2 hours, 4 hours, 8 hours, 12 hours and 24 hours after administration, and heparin sodium was used for anticoagulation. The collected blood samples were placed on ice, and plasma was separated by centrifugation (centrifugation condition: 1500 g, 10 minutes). The collected plasma was stored at-40°C to -20°C before analysis.
LC-MS/MS was used to determine the contents of different compounds to be tested in mouse plasma after intravenous injection and intragastric administration.
The pharmacokinetic parameters of the compounds of the present invention and the positive control can be seen in Table 8. Table 8 Results of pharmacokinetic parameters

In a further data set the target is T1, ALK(L1196M, G1202R) (Homo sapiens, UniProt Q9UM73, G1202R/L1196M).
T1 construct: purchased SignalChem A19-12NG-10
T1 sequence (Q9UM73 19-1620 L1196M/G1202R): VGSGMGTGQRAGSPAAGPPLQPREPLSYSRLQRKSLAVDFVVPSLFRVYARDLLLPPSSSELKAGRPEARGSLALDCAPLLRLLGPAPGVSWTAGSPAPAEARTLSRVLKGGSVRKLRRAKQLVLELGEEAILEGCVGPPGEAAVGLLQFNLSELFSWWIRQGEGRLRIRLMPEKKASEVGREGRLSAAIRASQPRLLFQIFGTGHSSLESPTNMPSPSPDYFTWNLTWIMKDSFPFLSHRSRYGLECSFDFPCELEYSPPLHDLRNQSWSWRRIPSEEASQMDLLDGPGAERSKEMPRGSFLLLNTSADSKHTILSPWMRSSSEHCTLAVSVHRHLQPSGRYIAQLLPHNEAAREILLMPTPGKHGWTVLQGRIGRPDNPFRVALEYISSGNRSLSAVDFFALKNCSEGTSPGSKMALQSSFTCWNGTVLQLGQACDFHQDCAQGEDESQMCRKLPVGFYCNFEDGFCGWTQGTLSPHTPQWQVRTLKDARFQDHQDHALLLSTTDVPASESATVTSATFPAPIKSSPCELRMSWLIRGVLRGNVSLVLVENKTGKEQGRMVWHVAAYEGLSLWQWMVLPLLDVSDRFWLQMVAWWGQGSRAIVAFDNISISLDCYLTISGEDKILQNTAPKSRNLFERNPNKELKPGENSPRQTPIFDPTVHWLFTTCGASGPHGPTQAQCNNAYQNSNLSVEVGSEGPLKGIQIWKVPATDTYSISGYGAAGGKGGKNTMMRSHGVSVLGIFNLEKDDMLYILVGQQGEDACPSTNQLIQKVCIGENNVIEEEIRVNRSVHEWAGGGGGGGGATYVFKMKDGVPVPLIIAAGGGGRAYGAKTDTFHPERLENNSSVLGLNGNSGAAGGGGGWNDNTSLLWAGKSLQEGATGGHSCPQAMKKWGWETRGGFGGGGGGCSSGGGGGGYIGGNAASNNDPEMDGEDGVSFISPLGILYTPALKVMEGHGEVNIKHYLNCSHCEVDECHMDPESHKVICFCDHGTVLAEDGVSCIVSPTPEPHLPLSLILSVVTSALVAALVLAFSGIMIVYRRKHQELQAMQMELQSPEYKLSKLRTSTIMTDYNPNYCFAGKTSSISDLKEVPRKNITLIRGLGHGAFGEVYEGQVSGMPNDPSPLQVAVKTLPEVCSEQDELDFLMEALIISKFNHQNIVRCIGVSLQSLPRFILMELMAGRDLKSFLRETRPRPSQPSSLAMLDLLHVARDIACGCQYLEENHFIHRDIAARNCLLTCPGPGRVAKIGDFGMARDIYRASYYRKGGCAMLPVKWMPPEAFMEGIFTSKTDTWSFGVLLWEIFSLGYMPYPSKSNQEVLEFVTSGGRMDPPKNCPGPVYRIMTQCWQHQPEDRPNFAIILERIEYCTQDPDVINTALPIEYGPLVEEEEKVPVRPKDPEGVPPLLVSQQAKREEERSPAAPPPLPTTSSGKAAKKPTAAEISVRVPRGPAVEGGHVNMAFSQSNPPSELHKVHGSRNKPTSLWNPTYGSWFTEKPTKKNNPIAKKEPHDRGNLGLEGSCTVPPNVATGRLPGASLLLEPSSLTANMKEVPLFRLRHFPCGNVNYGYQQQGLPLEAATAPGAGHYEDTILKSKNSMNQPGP
Description: HTRF KinEASE-TK kinase activity inhibition assay, ALK(L1196M, G1202R). The format is biochemical. As to conditions: ATP 25 µM. An excerpt: The following method was used to determine the inhibition degrees of the compounds of the present invention on the activities of recombinant human ALK(G1202R) and ALK(L1196M, G1202R) kinases in vitro. In this method, HTRF®KinEASE-TK tyrosine kinase kit (article No. 62TK0PEB) of Cisbio company was used, the principle of the kit was based on time-resolved fluorescence resonance energy transfer (TF-FRET), and the inhibitions of the compounds on the activities of the ALK(G1202R) and ALK(L1196M, G1202R) kinases were reflected by determining a phosphorylation degree of a biotinylated polypeptide substrate mediated by ALK kinase. For detailed experimental operation, please refer to the kit instruction. […]
The experimental flow was briefly described as follows: a test compound was first dissolved in DMSO to prepare a storage solution, and then diluted in gradient with a buffer provided in the kit. […] An ATP Km value concentration of each ALK protein was determined by using an ATP solution diluted in gradient (Sangon Biotech (Shanghai) Co., Ltd., A600311). […] After incubation, fluorescence intensity values of each well at an excitation wavelength of 304 nm, and emission wavelengths of 620 nm and 665 nM were determined in a TF-FRET mode on a microplate reader, and the fluorescence intensity ratio 665/620 of each hole was calculated. […]
On the technique in general: Time-resolved FRET reads energy transfer from a long-lived donor to a nearby acceptor.

[2] abbreviates: intravenous, 1 mg/kg, injection.

Read-outs that look alike come from different tables or passages of the source.

The term bioavailability denotes the share of a dose that reaches the circulation, judged against a reference dose that is usually intravenous. What is called clearance is a measure of how efficiently the substance is removed, as volume per time. What is called IC50 is the midpoint of a concentration-inhibition curve. Low values mean greater potency in that assay, high ones weaker potency in that assay.

For the compound `C[C@H]1Nc2ccn3ncc(c3n2)C(=O)NC[C@@]2(C)Cc3cc(F)cc1c3O2` [Example 8, (3R,11R)-6-fluoro-3,11-dimethyl-10-oxa-2,13,17,1 8,21-pentaazapentacyclo[13.5.2.1^8,11.0^4,9.0^18,22]tric osa-1(21),4,6,8,15(22),16,19-heptaen-14-one], the bioavailability in data set [1] is 53%. Besides, in data set [1] (5 mg/kg, oral intake), the AUC(0-inf) stood at 5620 ng·h/mL, the Cmax turned out to be 2260 ng/mL and the half-life was 1.54 h. Besides, in data set [1] (setting [2]), the AUC(0-inf) came to 2100 ng·h/mL, the clearance was 7.9 mL/min/kg and the half-life is 1.47 h. This compound also displayed an IC50 against ALK(L1196M, G1202R) of 20.7 nM.

As to `C[C@H]1Nc2ccn3nc(N)c(c3n2)C(=O)NC[C@@]2(C)Cc3cc(F)cc1c3O2` [Example 25, (3R,11R)-16-amino-6-fluoro-3,11-dimethyl-10-oxa-2,13,17,18,21-pentaazapentacyclo[13.5.2.1^8,11.0^4,9. 0^18,22]tricosa-1(21),4,6,8,15(22),16,19-heptaen-14-one], the bioavailability in data set [1] was found to be 47%. In data set [1] (5 mg/kg, oral intake), the AUC(0-inf) was 4850 ng·h/mL, the Cmax was 1050 ng/mL and the half-life is 3.15 h. In data set [1] (setting [2]), the AUC(0-inf) turned out to be 2060 ng·h/mL, the clearance turned out to be 8.11 mL/min/kg and the half-life is 1.54 h. Moreover, the IC50 at ALK(L1196M, G1202R) is 24.2 nM.

Values taken from patent EP3974434B1, “MACROLIDE DERIVATIVES, PREPARATION METHOD AND APPLICATION THEREOF” (Zhejiang Hisun Pharmaceutical Co., Ltd., priority 2019, dated 2020).
